{"source": "paper PMC9946977", "about": "“Identification of linderalactone as a natural inhibitor of SHP2 to ameliorate CCl4-induced liver fibrosis” (Frontiers in Pharmacology, 2023)", "key": {"[1]": {"system": "TGF-β/Smad pathway", "assay": "CCl4 mouse model: liver TGF-β/Smad signalling (real-time PCR, Western blot)", "type": "in vivo, C57BL/6 mice", "description": "(§1) C57BL/6 mice (20 ± 2 g) were obtained from Hangzhou Medical College Experimental Animal Center (Hangzhou, China). The animals were maintained under controlled temperature (22°C ± 1°C), humidity (50%), and light (12 h light/12 h dark). The animals were fed a standard laboratory diet and provided with free access to tap water. All animals received humane care according to institutional animal care guidelines approved by the Experimental Animal Ethical Committee of Hangzhou Medical College. Forty mice were randomly divided into six groups: (1) vehicle control (n = 7); (2) CCl4 model (n = 7); (3) CCl4 + LIN (20 mg/kg) (n = 7); (4) CCl4 + LIN (40 mg/kg) (n = 7); (5) LIN (40 mg/kg) (n = 7); and (6) CCl4 + silymarin (SIL) (200 mg/kg) (n = 5). LIN and SIL were dissolved in 0.5% CMC-Na solution. Mice were administered LIN or SIL (intragastric administration, i.g.) once per day and CCl4 (intraperitoneal injection, i.p.; mixed 1:3 in olive oil, 2 mL/kg) twice per week for 4 weeks. Mice in the vehicle control group received olive oil (i.p. twice a week, 4 weeks) and 0.5% CMC-Na (i.g. every day, 4 weeks). After treatment, the mice were sacrificed, and plasma and liver tissues were collected and further analysed.\n(§2) Total RNA was extracted from liver tissues and LX-2 cells using the TRIzol reagent. cDNA was synthesised using a PrimeScript RT Master Mix kit. Real-time PCR was performed using SYBR Green premix according to the manufacturer’s instructions. Relative expression of target genes was normalised to actin, analysed by the delta-delta-CT method and given as a ratio compared with the vehicle control. Primer sequences used in this study are listed in Supplementary Material.\n(§3) Liver proteins were isolated by using a lysis buffer containing 50 mM Tris-HCl (pH7.5), 150 mM NaCl, 1 mM EDTA, 20 mM NaF, 0.5% NP-40, 10% glycerol, 1 mM phenylmethylsulphonyl fluoride, 10 μg/mL aprotinin, 10 μg/mL leupeptin, and 10 μg/mL pepstatin. The supernatants were collected after centrifugation at 3,000 g for 10 min at 4°C, and the protein concentration of each sample was determined and normalised to the same protein concentration. Protein samples were separated by sodium dodecyl sulphate-polyacrylamide gel electrophoresis and transferred onto polyvinylidene fluoride membranes. The membranes were incubated with the indicated primary and secondary antibodies, and the proteins in the membranes were visualised using a chemiluminescence kit. TGF-® antibody (CST, 3711), Smad 2/3 antibody (CST, 8685), p-Smad 2/3 antibody (CST, 8828), anti-α-SMA antibody (Santa Cruz, SC-53142), vimentin antibody (ABclonal, A19607), desmin antibody (ABclonal, A3736), GAPDH antibody (Beyotime, AF0006), and SHP2 antibody (CST, 3397). […]"}, "[2]": {"system": "HSCs activation (α-SMA, vimentin, desmin)", "assay": "CCl4 mouse model: HSC activation markers in liver", "type": "in vivo, C57BL/6 mice", "conditions": "CCl4 mice", "description": "as §1, §2\nThe formalin-fixed and de-paraffinized liver sections (5 μm) were incubated with 5% bovine serum albumin to minimise non-specific binding, and then incubated with α-SMA antibody (Santa Cruz, SC-53142) in a humidified chamber overnight at 4°C. After washing thrice with PBS, the sections were incubated with FITC-conjugated secondary antibody (SH0058; Skyhobio) for 1 h. After washing thrice, the liver sections were incubated with DAPI for 10 min. Images were captured using an inverted microscope (IX81; Olympus, Japan).\nParaffin-embedded liver sections were deparaffinized in xylene, rehydrated in a gradient of ethanol to distilled water, and then quenched by 3% hydrogen peroxide and then incubated with 5% bovine serum albumin, followed by incubation with vimentin antibody (ABclonal, A19607) at 4°C overnight, and further detected by using DAKO EnVision detection kits (Agilent Technologies Co., Ltd. K346811). The sections were counterstained with haematoxylin. Images were taken using an inverted microscope, and vimentin-positive cells were counted manually using Image-Pro Plus 6 in three random fields per sample (each group contained three samples).\nas §3"}, "[3]": {"conditions": "LIN 20 mg/kg, Western blot, p < 0.05"}}, "data": [{"smiles": "C/C1=C\\CCC2=C[C@@H](OC2=O)c2c(C)coc2C1", "note": "[LIN, linderalactone]", "values": [{"measurement": "hepatic TGF-β protein expression", "setting": "[1]; CCl4 mice, LIN 40 mg/kg, Western blot", "value": "reduced"}, {"measurement": "hepatic TGF-β mRNA expression", "setting": "[1]; CCl4 mice, LIN 40 mg/kg, real-time PCR", "value": "reduced"}, {"measurement": "Smad2/3 phosphorylation in the liver", "setting": "[1]; CCl4 mice, Western blot", "value": "significantly inhibited"}, {"measurement": "expression level of SHP2 protein", "setting": "[1]; liver (Figure 4D) and LX-2 cells (Figure S2), Western blot", "value": "do not affect"}, {"measurement": "liver α-SMA accumulation (immunofluorescence staining)", "setting": "[2]; LIN", "value": "largely inhibited"}, {"measurement": "protein expression of hepatic Des", "setting": "[2]; [3]", "value": "significant reduction"}, {"measurement": "protein expression of hepatic Vim", "setting": "[2]; [3]", "value": "significant reduction"}, {"measurement": "protein expression of hepatic α-SMA", "setting": "[2]; [3]", "value": "significant reduction"}, {"measurement": "hepatic mRNA expression of Des", "setting": "[2]; LIN 20 and 40 mg/kg", "value": "significantly reduced"}, {"measurement": "hepatic mRNA expression of Vim", "setting": "[2]; LIN 20 and 40 mg/kg", "value": "significantly reduced"}, {"measurement": "hepatic mRNA expression of acta2", "setting": "[2]; LIN 20 and 40 mg/kg", "value": "significantly reduced"}]}]}
